ChEMBL document CHEMBL5500372, “Novel natural osthole-inspired amphiphiles as membrane targeting antibacterials against methicillin-resistant Staphylococcus aureus (MRSA)” (Eur J Med Chem, 2024)
The source made the active and inactive calls. The calls are words filed in the database; no cut-off is given here.

Legend:
[1] = tested on: Staphylococcus aureus; assay: Antibacterial activity against methicillin-resistant Staphylococcus aureus clinical isolate 23 measured after 18 hrs by CLSI based broth microdilution method; type: functional
[2] = tested on: Staphylococcus aureus; assay: Antibacterial activity against methicillin-resistant Staphylococcus aureus clinical isolate 21 measured after 18 hrs by CLSI based broth microdilution method; type: functional
[3] = tested on: Staphylococcus aureus; assay: Antibacterial activity against methicillin-resistant Staphylococcus aureus clinical isolate 22 measured after 18 hrs by CLSI based broth microdilution method; type: functional
[4] = Hemolytic activity in sheep erythrocyte assessed as hemolysis incubated for 1 hr by absorbance based analysis; type: toxicity, cell-based, Ovis aries; settings: sheep erythrocytes
[5] = tested on: Staphylococcus aureus; assay: Bactericidal activity against Staphylococcus aureus ATCC 29213 assessed as eradication of bacteria at 8 times MIC measured after 4 hrs by time-kill assay relative to control; type: functional
[6] = tested on: Cell membrane; assay: Disruption of cell membrane in methicillin-resistant Staphylococcus aureus clinical isolate 16 assessed as appearance of broken surface at 16 ug/ml measured after 4 hrs by SEM analysis; type: cell membranes; settings: dose 16.0 µg/ml
[7] = tested on: Cell membrane; assay: Induction of cytoplasmic membrane permeabilization in methicillin-resistant Staphylococcus aureus clinical isolate 16 assessed as increase in fluorescence intensity at 8 to 32 time MIC measured for 10 mins by SYTOX green dye based fluorescence analysis; type: cell membranes
[8] = tested on: Cell membrane; assay: Induction of cell membrane disruption in methicillin-resistant Staphylococcus aureus clinical isolate 16 assessed as intact cells (Q3 region) at 8 ug/ml measured after 2 hrs by SYTO-9 and PI staining based flow cytometry analysis (reference value: 96.0%); type: cell membranes; settings: dose 8.0 µg/ml
[9] = tested on: Cell membrane; assay: Induction of cell membrane disruption in methicillin-resistant Staphylococcus aureus clinical isolate 16 assessed as dead cells (Q1 region) at 8 ug/ml measured after 2 hrs by SYTO-9 and PI staining based flow cytometry analysis (reference value: 0%); type: cell membranes; settings: dose 8.0 µg/ml
[10] = tested on: Cell membrane; assay: Induction of cell membrane disruption in methicillin-resistant Staphylococcus aureus clinical isolate 16 assessed as dead cells (Q1 region) at 16 ug/ml measured after 2 hrs by SYTO-9 and PI staining based flow cytometry analysis (reference value: 0%); type: cell membranes; settings: dose 16.0 µg/ml
[11] = tested on: Staphylococcus aureus; assay: Antibacterial activity against methicillin-resistant Staphylococcus aureus clinical isolate 16 measured after 18 hrs in presence of cardiolipin by checkerboard broth dilution method; type: functional, organism-based
[12] = tested on: Cell membrane; assay: Disruption of cell membrane in methicillin-resistant Staphylococcus aureus clinical isolate 16 assessed as increase in intracellular ROS level incubated for 50 mins by DCFH-DA staining based fluorescence assay; type: cell membranes
[13] = tested on: Cell membrane; assay: Disruption of cell membrane in methicillin-resistant Staphylococcus aureus clinical isolate 16 assessed as increase in protein leakage incubated for 4 hrs by microspectrophotometric analysis; type: cell membranes; settings: dose <= 8.0 µg/ml
[14] = Toxicity in female KM mouse assessed as effect on mean corpuscular volume at upto 20 mg/kg, sc measured after 24 hrs; type: organism-based; settings: in vivo
[15] = Toxicity in female KM mouse assessed as effect on hematocrit in blood at upto 20 mg/kg, sc measured after 24 hrs; type: organism-based; settings: in vivo
[16] = Toxicity in female KM mouse assessed as effect on albumin at upto 20 mg/kg, sc measured after 24 hrs by biochemical test; type: organism-based; settings: in vivo
[17] = Toxicity in female KM mouse assessed as effect on back skin at 20 mg/kg, sc measured after 24 hrs by H and E staining based analysis; type: organism-based; settings: in vivo
[18] = Toxicity in female KM mouse assessed as effect on spleen at 20 mg/kg, sc measured after 24 hrs by H and E staining based analysis; type: organism-based; settings: in vivo
[19] = Toxicity in female KM mouse assessed as effect on histopathological abnormalities in heart at 20 mg/kg, sc measured after 24 hrs by H and E staining based analysis; type: organism-based; settings: in vivo
[20] = Toxicity in female KM mouse assessed as effect on histopathological abnormalities in liver at 20 mg/kg, sc measured after 24 hrs by H and E staining based analysis; type: organism-based; settings: in vivo
[21] = Toxicity in female KM mouse assessed as effect on histopathological abnormalities in spleen at 20 mg/kg, sc measured after 24 hrs by H and E staining based analysis; type: organism-based; settings: in vivo
[22] = Toxicity in female KM mouse assessed as effect on histopathological abnormalities in kidney at 20 mg/kg, sc measured after 24 hrs by H and E staining based analysis; type: organism-based; settings: in vivo
[23] = tested on: Staphylococcus aureus; assay: Antibacterial activity against methicillin-resistant Staphylococcus aureus clinical isolate 16 infected in female KM mouse skin abscess model assessed as effect on skin lesions at 10 mg/kg, sc measured after 24 hrs; type: functional, organism-based
[24] = tested on: Staphylococcus aureus; assay: Antibacterial activity against methicillin-resistant Staphylococcus aureus clinical isolate 16 infected in female KM mouse skin abscess model assessed as effect on skin abscess at 10 mg/kg, sc measured after 24 hrs; type: functional, organism-based
[25] = tested on: Staphylococcus aureus; assay: Antibacterial activity against methicillin-resistant Staphylococcus aureus clinical isolate 16 infected in female KM mouse skin abscess model assessed as effect on abscess in intradermal tissue at 5 mg/kg, sc measured after 24 hrs; type: functional, organism-based
[26] = tested on: Staphylococcus aureus; assay: Antibacterial activity against methicillin-resistant Staphylococcus aureus clinical isolate 16 infected in female KM mouse skin abscess model assessed as reduction in inflammatory cells at 5 to 10 mg/kg, sc measured after 24 hrs by H and E staining based analysis; type: functional, organism-based; settings: dose 5-10 mg/kg
[27] = tested on: Staphylococcus aureus; assay: Antibacterial activity against methicillin-resistant Staphylococcus aureus clinical isolate 16 infected in female KM mouse skin abscess model assessed as reduction in bacterial load at 10 mg/kg, sc measured after 24 hrs relative to control; type: functional; set-up: scale not given: the % may be the effect or the level left
[28] = tested on: Staphylococcus aureus; assay: Antibacterial activity against methicillin-resistant Staphylococcus aureus clinical isolate 16 infected in female KM mouse skin abscess model assessed as log reduction in bacterial load at 10 mg/kg, sc measured after 24 hrs (reference value: 8.508 log10CFU/g); type: functional
[29] = tested on: Staphylococcus aureus; assay: Antibacterial activity against methicillin-resistant Staphylococcus aureus clinical isolate 16 infected in female KM mouse skin abscess model assessed as log reduction in bacterial load at 5 mg/kg, sc measured after 24 hrs (reference value: 8.508 log10CFU/g); type: functional
[30] = tested on: Staphylococcus aureus; assay: Antibacterial activity against methicillin-resistant Staphylococcus aureus clinical isolate 16 infected in female KM mouse skin abscess model assessed as reduction in IL-6 level at 5 to 10 mg/kg, sc measured after 24 hrs by ELISA method; type: functional, organism-based; settings: dose 5-10 mg/kg
[31] = Toxicity in female KM mouse skin abscess model infected with methicillin-resistant Staphylococcus aureus clinical isolate 16 assessed as effect on heart at 5 to 10 mg/kg, sc measured after 24 hrs by H and E staining based analysis; type: organism-based; settings: in vivo, dose 5-10 mg/kg
[32] = Toxicity in female KM mouse skin abscess model infected with methicillin-resistant Staphylococcus aureus clinical isolate 16 assessed as effect on liver at 5 to 10 mg/kg, sc measured after 24 hrs by H and E staining based analysis; type: organism-based; settings: in vivo, dose 5-10 mg/kg
[33] = Toxicity in female KM mouse skin abscess model infected with methicillin-resistant Staphylococcus aureus clinical isolate 16 assessed as effect on spleen at 5 to 10 mg/kg, sc measured after 24 hrs by H and E staining based analysis; type: organism-based; settings: in vivo, dose 5-10 mg/kg
[34] = Toxicity in female KM mouse skin abscess model infected with methicillin-resistant Staphylococcus aureus clinical isolate 16 assessed as histological abnormalities in lung at 5 to 10 mg/kg, sc measured after 24 hrs by H and E staining based analysis; type: organism-based; settings: in vivo, dose 5-10 mg/kg

Structure (SMILES): CCCCCCNC(=O)C[N+](C)(C)CCCCCOc1ccc2ccc(=O)oc2c1CC=C(C)C.[Br-]
- MIC [1]: 2 µg/mL
- MIC [2]: 2 µg/mL
- MIC [3]: 1 µg/mL
- HC50 at 1 h [4]: 1040 µg/mL
- Activity [5]: 100%
- Activity [6]: Active
- Activity [7]: Active
- Activity [8]: 45.3%
- Activity [9]: 0.34%
- Activity [10]: 0.68%
- Activity [11]: Active
- Activity [12]: Dose-Dependent Effect
- Activity [13]: Dose-Dependent Effect
- Activity [14]: Non-Toxic
- Activity [15]: Non-Toxic
- Activity [16]: Non-Toxic
- Activity [17]: Non-Toxic
- Activity [18]: Non-Toxic
- Activity [19]: Non-Toxic
- Activity [20]: Non-Toxic
- Activity [21]: Non-Toxic
- Activity [22]: Non-Toxic
- Activity [23]: inactive
- Activity [24]: inactive
- Activity [25]: Active
- Activity [26]: Active
- Activity [27]: 99.998%
- Activity [28]: 4.458 log10CFU/g
- Activity [29]: 2.962 log10CFU/g
- Activity [30]: Active
- Activity [31]: Non-Toxic
- Activity [32]: Non-Toxic
- Activity [33]: Non-Toxic
- Activity [34]: Non-Toxic
